Experimental data from publication PMC3445516 (PLoS ONE, 2012).
Where two headings read alike, the source gives them in different places. Values belong to the molecule of their own block, whether it stands above or below them.

Legend:
Experiment in all cases: Ambit kinase profiling, competition binding
[1] = target: T1, BRAF (Homo sapiens, UniProt P15056)
T1 construct: purchased Ambit Biosciences (KINOMEscan)
Protocol: (§1) Also included in the kinase profile are four isoforms of PKC (δ, ε, η, θ) and eight isoforms of CAMKs (CAMKIα, δ, γ; CAMKIIα, β, δ, γ; CAMK4).
(§2) The global kinase profiling experiment was performed by Ambit Biosciences.

[2] = target: T2, CDK3 (Homo sapiens, UniProt Q00526); settings: for % Competition: 10 µM
T2 construct: purchased Ambit Biosciences (KINOMEscan)
T2 sequence (Q00526 whole entry): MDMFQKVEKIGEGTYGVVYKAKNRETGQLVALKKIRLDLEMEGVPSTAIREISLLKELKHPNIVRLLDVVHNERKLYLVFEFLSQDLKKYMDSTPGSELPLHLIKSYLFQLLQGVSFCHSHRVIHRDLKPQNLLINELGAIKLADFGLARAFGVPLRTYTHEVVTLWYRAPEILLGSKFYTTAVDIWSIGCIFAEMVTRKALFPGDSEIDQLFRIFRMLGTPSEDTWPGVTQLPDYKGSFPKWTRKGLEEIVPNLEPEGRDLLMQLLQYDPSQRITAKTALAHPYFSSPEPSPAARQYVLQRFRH
Protocol: as §1, §2

[3] = target: T3, CSNK1D (Homo sapiens, UniProt P48730)
T3 construct: purchased Ambit Biosciences (KINOMEscan)
T3 sequence (P48730 whole entry): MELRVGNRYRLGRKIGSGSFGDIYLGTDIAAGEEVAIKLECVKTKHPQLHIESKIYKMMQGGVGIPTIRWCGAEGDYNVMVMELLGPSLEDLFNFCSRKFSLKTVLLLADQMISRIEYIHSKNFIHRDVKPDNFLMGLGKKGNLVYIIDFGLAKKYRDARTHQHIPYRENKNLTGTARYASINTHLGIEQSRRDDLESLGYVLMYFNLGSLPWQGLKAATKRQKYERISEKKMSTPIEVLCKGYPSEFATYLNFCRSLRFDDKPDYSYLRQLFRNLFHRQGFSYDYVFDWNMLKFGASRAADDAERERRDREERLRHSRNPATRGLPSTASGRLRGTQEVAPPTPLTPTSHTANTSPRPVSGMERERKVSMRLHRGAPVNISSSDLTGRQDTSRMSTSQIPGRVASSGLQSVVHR
Protocol: as §1, §2

[4] = target: T4, DAPK1 (Homo sapiens, UniProt P53355)
T4 construct: purchased Ambit Biosciences (KINOMEscan)
T4 sequence (P53355 whole entry): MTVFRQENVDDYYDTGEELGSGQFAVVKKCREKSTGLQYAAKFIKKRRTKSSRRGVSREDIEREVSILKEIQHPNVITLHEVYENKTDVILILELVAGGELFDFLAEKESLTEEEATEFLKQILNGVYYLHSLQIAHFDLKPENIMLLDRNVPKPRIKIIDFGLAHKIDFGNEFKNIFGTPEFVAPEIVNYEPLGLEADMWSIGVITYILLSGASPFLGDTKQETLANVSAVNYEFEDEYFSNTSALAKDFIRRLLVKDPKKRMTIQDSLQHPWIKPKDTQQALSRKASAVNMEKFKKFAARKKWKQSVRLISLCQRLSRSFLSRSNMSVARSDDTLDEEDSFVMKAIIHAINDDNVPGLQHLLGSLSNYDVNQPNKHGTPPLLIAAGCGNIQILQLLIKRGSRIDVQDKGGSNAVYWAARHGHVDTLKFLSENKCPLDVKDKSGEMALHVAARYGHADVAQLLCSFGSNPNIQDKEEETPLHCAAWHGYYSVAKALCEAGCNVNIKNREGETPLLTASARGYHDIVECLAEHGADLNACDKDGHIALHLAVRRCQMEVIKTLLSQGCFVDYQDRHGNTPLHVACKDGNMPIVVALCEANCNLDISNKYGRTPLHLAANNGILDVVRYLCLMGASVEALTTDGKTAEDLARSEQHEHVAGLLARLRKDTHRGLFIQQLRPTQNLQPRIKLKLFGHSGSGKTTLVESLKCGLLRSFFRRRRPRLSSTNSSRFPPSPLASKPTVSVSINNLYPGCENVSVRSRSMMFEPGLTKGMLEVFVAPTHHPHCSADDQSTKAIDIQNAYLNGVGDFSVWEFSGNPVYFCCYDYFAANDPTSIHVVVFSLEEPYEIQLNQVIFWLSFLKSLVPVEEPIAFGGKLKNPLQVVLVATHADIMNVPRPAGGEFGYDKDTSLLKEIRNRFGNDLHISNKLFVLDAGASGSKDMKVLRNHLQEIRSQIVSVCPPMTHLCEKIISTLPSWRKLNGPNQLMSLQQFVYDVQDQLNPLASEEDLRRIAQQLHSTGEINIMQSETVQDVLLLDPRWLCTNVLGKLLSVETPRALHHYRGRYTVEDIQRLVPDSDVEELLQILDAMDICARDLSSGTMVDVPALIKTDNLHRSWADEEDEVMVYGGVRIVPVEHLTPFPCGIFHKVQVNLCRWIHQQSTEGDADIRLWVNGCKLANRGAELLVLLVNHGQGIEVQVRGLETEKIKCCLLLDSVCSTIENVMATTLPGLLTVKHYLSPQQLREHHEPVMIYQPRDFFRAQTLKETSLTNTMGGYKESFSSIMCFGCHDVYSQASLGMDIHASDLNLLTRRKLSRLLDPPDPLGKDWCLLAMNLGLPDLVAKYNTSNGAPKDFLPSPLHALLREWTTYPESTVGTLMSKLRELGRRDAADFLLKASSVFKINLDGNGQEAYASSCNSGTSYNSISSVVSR
Protocol: as §1, §2

[5] = target: T5, EGFR(L747-E749del, A750P) (Homo sapiens, UniProt P00533, A750P/DEL747-749); settings: for % Competition: 10 µM
T5 construct: purchased Ambit Biosciences (KINOMEscan)
Protocol: as §1, §2

[6] = target: T6, PHKG2 (Homo sapiens, UniProt P15735)
T6 construct: purchased Ambit Biosciences (KINOMEscan)
T6 sequence (P15735 1-406): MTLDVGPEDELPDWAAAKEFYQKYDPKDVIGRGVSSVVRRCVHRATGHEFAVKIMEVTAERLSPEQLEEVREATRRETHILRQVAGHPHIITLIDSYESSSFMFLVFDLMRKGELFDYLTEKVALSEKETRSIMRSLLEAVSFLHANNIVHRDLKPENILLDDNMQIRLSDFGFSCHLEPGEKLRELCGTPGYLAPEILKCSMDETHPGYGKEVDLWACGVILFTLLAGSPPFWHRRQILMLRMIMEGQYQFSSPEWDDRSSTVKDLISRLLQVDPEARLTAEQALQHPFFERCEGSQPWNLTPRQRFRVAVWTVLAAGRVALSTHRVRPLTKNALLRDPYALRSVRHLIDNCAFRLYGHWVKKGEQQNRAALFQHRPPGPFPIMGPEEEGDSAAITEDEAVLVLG
Protocol: as §1, §2

[7] = target: T7, PRKD3 (Homo sapiens, UniProt O94806)
T7 construct: purchased Ambit Biosciences (KINOMEscan)
T7 sequence (O94806 1-890): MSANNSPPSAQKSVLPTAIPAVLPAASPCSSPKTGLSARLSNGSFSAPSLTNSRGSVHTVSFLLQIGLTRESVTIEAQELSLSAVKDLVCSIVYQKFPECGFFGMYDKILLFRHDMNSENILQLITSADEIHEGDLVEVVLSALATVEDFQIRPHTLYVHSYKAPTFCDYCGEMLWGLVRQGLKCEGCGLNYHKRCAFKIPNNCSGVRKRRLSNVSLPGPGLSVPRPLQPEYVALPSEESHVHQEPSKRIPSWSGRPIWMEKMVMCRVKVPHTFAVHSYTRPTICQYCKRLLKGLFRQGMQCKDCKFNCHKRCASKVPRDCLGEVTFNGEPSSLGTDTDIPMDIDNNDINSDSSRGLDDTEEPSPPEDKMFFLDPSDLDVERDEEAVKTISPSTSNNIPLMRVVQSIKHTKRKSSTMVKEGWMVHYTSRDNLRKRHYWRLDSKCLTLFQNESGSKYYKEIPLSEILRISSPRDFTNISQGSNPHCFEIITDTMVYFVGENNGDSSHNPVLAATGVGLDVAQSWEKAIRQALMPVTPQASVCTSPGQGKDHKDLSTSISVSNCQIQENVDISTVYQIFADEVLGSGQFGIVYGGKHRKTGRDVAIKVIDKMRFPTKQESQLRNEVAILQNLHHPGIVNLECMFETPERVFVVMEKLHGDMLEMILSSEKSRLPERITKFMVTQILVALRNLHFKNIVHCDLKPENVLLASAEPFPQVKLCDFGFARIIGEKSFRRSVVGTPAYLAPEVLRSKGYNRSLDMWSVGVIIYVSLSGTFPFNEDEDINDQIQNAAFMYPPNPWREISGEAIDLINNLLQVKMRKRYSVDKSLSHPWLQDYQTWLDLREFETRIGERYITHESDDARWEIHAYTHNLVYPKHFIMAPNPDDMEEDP
Protocol: as §1, §2

[8] = target: T8, STK16 (Homo sapiens, UniProt O75716)
T8 construct: purchased Ambit Biosciences (KINOMEscan)
T8 sequence (O75716 whole entry): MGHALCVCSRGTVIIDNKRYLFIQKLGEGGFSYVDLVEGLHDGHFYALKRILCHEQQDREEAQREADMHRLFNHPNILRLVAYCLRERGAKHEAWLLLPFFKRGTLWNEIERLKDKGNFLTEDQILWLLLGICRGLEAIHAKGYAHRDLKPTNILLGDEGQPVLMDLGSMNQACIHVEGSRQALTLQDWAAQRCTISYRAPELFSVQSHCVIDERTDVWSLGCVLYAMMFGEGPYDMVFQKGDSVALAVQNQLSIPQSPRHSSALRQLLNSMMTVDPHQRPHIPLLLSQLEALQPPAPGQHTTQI
Protocol: as §1, §2

[9] = target: T9, SYK (Homo sapiens, UniProt P43405); settings: for % Competition: 10 µM
T9 construct: purchased Ambit Biosciences (KINOMEscan)
Protocol: as §1, §2

[10] = target: T10, TNNI3K (Homo sapiens, UniProt Q59H18)
T10 construct: purchased Ambit Biosciences (KINOMEscan)
T10 sequence (Q59H18 1-835): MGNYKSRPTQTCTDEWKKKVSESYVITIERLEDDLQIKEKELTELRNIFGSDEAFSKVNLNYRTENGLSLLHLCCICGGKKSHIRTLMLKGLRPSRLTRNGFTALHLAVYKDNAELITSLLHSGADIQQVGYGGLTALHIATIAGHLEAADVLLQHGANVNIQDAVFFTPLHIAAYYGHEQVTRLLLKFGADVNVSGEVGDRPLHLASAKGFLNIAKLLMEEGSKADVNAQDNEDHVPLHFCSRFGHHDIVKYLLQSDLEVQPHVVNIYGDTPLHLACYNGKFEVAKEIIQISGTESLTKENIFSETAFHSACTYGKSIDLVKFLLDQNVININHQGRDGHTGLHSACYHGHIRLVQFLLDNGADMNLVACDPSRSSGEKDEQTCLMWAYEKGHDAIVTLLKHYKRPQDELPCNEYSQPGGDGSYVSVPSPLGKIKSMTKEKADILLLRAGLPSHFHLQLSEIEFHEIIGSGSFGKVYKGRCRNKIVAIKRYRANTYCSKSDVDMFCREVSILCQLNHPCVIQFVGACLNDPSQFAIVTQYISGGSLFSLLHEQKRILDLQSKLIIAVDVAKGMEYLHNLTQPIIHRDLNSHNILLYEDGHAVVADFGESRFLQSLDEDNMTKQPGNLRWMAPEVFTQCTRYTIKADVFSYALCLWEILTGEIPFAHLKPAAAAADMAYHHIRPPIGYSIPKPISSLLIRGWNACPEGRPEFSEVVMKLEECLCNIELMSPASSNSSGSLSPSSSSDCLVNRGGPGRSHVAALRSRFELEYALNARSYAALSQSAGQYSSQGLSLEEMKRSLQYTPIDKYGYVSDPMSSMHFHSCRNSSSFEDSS
Protocol: as §1, §2

[11] = target: T11, YANK2 (Homo sapiens, UniProt Q9NY57)
T11 construct: purchased Ambit Biosciences (KINOMEscan)
T11 sequence (Q9NY57 whole entry): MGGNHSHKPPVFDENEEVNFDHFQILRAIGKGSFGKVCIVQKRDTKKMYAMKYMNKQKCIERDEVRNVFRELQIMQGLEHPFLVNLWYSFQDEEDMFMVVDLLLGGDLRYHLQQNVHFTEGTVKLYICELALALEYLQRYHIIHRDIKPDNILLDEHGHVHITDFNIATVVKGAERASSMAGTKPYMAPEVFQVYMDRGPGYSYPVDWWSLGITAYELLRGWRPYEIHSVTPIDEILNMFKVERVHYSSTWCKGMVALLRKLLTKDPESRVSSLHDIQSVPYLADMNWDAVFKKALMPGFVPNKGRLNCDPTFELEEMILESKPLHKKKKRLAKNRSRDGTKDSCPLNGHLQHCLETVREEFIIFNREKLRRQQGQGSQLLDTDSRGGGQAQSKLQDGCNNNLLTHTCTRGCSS
Protocol: as §1, §2

[12] = target: T12, p38-alpha (Homo sapiens, UniProt Q16539); settings: for % Competition: 10 µM
T12 construct: purchased Ambit Biosciences (KINOMEscan)
T12 sequence (Q16539 whole entry): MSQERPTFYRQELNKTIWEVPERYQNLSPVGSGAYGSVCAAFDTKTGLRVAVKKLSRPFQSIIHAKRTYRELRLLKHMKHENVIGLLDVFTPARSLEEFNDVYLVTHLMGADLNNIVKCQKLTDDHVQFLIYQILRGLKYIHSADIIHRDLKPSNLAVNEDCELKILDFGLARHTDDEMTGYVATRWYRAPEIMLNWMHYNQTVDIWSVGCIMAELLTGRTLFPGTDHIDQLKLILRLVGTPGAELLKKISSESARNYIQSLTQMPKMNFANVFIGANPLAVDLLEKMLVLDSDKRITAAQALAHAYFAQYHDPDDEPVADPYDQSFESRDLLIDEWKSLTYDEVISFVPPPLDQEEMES
Protocol: as §1, §2

T1 sequence (P15056 whole entry): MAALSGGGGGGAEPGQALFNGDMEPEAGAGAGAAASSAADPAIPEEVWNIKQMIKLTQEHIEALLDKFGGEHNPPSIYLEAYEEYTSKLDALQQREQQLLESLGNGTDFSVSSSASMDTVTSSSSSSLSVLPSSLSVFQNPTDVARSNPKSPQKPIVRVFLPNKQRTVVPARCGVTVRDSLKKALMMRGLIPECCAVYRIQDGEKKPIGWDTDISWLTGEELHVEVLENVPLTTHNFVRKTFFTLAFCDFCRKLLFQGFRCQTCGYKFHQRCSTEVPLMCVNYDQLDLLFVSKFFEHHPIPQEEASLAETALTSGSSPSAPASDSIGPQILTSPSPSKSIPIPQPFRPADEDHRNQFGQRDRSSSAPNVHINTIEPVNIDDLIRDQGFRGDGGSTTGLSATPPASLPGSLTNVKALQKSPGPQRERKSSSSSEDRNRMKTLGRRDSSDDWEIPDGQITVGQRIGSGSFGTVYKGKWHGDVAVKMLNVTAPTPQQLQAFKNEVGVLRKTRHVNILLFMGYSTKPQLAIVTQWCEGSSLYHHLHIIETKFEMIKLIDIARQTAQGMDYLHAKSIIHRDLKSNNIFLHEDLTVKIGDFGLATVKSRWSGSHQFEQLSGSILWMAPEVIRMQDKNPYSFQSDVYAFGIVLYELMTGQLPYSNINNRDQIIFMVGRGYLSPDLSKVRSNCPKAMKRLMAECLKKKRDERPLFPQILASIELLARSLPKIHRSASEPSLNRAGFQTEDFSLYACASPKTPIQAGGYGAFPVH

inhibition at 10 µM ([1]; BRAF, 10 µM, read-out: % Competition): 97%
% Competition [2]: 92%
inhibition at 10 µM ([3]; CSNK1D, 10 µM, read-out: % Competition): 97%
inhibition at 10 µM ([4]; DAPK1, 10 µM, read-out: % Competition): < 50%
% Competition [5]: 98%
inhibition at 10 µM ([6]; PHKG2, 10 µM, read-out: % Competition): 91%
inhibition at 10 µM ([7]; PRKD3 (PKD3), 10 µM, read-out: % Competition): 98%
inhibition at 10 µM ([8]; STK16, 10 µM, read-out: % Competition): 96%
% Competition [9]: 72%
inhibition at 10 µM ([10]; TNNI3K, 10 µM, read-out: % Competition): 67%
inhibition at 10 µM ([11]; YANK2, 10 µM, read-out: % Competition): 89%
% Competition [12]: 100%
Compound: Fc1ccc(-c2c(-c3ccncc3)[nH]c3nccnc23)cc1 [Compound 122]

Compound: CC(O)CNc1cc(-c2[nH]c3cccnc3c2-c2ccc(F)cc2)ccn1 (stereo not drawn) [Compound 140]
inhibition at 10 µM ([1]; read-out: % Competition): 76%
% Competition [2]: <50%
inhibition at 10 µM ([3]; read-out: % Competition): 96%
inhibition at 10 µM ([4]; read-out: % Competition): 73%
% Competition [5]: 90%
inhibition at 10 µM ([6]; read-out: % Competition): < 50%
inhibition at 10 µM ([7]; read-out: % Competition): 96%
inhibition at 10 µM ([8]; read-out: % Competition): < 50%
% Competition [9]: <50%
inhibition at 10 µM ([10]; read-out: % Competition): < 50%
inhibition at 10 µM ([11]; read-out: % Competition): < 50%
% Competition [12]: 100%

inhibition at 10 µM ([1]; BRAF, compound concentration 10 uM, read-out: Percent Competition): 97%
Percent Competition ([2]; compound concentration 10 uM): 92%
inhibition at 10 µM ([3]; CSNK1D, compound concentration 10 uM, read-out: Percent Competition): 97%
inhibition at 10 µM ([4]; DAPK1, compound concentration 10 uM, read-out: Percent Competition): < 50%
Percent Competition ([5]; compound concentration 10 uM): 98%
inhibition at 10 µM ([6]; PHKG2, compound concentration 10 uM, read-out: Percent Competition): 91%
inhibition at 10 µM ([7]; PRKD3, compound concentration 10 uM, read-out: Percent Competition): 98%
inhibition at 10 µM ([8]; STK16, compound concentration 10 uM, read-out: Percent Competition): 96%
Percent Competition ([9]; compound concentration 10 uM): 72%
inhibition at 10 µM ([10]; TNNI3K, compound concentration 10 uM, read-out: Percent Competition): 67%
inhibition at 10 µM ([11]; YANK2, compound concentration 10 uM, read-out: Percent Competition): 89%
Percent Competition ([12]; compound concentration 10 uM): 100%
Compound: Fc1ccc(-c2c(-c3ccncc3)[nH]c3nccnc23)cc1 [RO1155697-000-005]
